In brackets after ≈: the same amount, converted by molar mass. Read-outs that look alike come from different tables or passages of the source.
Experiments:
Fusarium oxysporum = assay: Antimicrobial MIC, 96-well broth dilution; assay type: cell-based; details: tested range 0.78–100 μg/mL, 48 h at 27 °C, means of three parallel experiments, read-out: minimum inhibitory concentration (MIC)
From the text: (§1) In contrast, for fungal inhibition activity, aza-benzofuran compounds show lower activity than oxa-benzofuran compounds. […] In terms of antifungal activity, when compound 5 and 6 form hydroxyl groups at position C-6, their polarity […], making them more susceptible to penetrating fungal cell membranes through hydrophobic mechanisms.
(§2) The minimum inhibitory concentration (MIC) values of antimicrobial activity of compounds 1–4 against three different plant pathogenic […], including Penicillium italicum, Fusarium oxysporum and Colletotrichum musae, and three human pathogenic bacteria, including Salmonella typhimurium (ATCC 6539), Escherichia coli (ATCC 25922) and Staphylococcus aureus (ATCC 12598), were determined via serial dilution technique employing 96-well microtiter plates. In brief, the bacterial cell suspension was adjusted to an inoculum density of 5 × 10^5 cfu/mL by comparison with a MacFarland standard before use. The fungal thallus concentration was adjusted to 1 × 10^6 cfu/mL. The tested compounds in dimethyl sulfoxide (DMSO) were added to PDB/MH broth medium to obtain a series of final concentrations of 100, 50, 25, 12.5, 6.25, 3.13, 1.57, 0.78 μg/mL. DMSO and carbendazim/ciprofloxacin served as negative and positive controls, respectively. The antifungal plates were incubated for 48 h at 27 °C, and the antibacterial plates were incubated for 24 h at 27 °C. Ten microliters of resazurin dissolved in DMSO at 100 μg/mL was added to each well of the microplate, followed by incubation at 27 °C for 3 h. We determined the MIC values by observing color changes using the visual endpoint method. For each parallel experiment, three replicates were measured.

Penicillium italicum = assay: Antimicrobial MIC, 96-well broth dilution; assay type: cell-based; details: tested range 0.78–100 μg/mL, 48 h at 27 °C, means of three parallel experiments, read-out: minimum inhibitory concentration (MIC)
From the text: as §1, §2

Colletotrichum musae = assay: Antimicrobial MIC, 96-well broth dilution; assay type: cell-based; details: tested range 0.78–100 μg/mL, 48 h at 27 °C, means of three parallel experiments; for MIC: 48 h, read-out: minimum inhibitory concentration (MIC)
From the text: as §1, §2

[1] = tested on: LPS-stimulated RAW 264.7 cells; assay: Inhibition of NO production (Griess reagent) in LPS-stimulated macrophages; assay type: cell-based, mouse; details: 4 h pretreatment, 1 μg/mL LPS for 24 h, mean ± SD, three independent experiments
Description: (§3) The anti-inflammatory activities of compounds 1–4 were evaluated by assessing the inhibition of nitric oxide (NO) production in lipopolysaccharide (LPS)-stimulated murine macrophage RAW 264.7 cells. […] In addition, we also tested the cytotoxicity of compounds 1–4, and cytotoxicity was assessed independently of LPS stimulation.
The nitrite concentration in the culture medium was measured using the Griess reagent, as previously reported, with slight modifications. The mouse macrophage cell line RAW 264.7 cells were purchased from the Shanghai Institutes for Biological Sciences and cultured in DMEM (high-glucose) medium supplemented with 10% (v/v) fetal bovine serum, 100 μg·mL^−1 penicillin and streptomycin, and 10 mM HEPES at 37 °C in a 5% CO2 atmosphere. Cells were pretreated with different samples dissolved in serum-free culture medium containing 0.5% DMSO (10, 5, 2.5, 1.25, and 0.625 μM) for 4 h, followed by stimulation with 1 μg·mL^−1 LPS for 24 h. Then, 50 μL of cell culture medium was mixed with 100 μL of Griess reagent I and II and incubated at room temperature for 10 min with horizontal shaking, after which the absorbance at 540 nm was measured in a microplate reader. Indomethacin was used as a positive control and was purchased from Sigma-Aldrich (St. Louis, MI, USA) Co. Wells with DMSO were used as a negative control (final DMSO concentration was 0.1%). The NO production inhibition rate was calculated using the flowing formula: NO production inhibition rate (%) =LPS group−Compound group/LPS group−DMSO group×100
IC50 is the concentration of the compound that inhibits 50% of NO production relative to the LPS group. All assays were performed in triplicate. The inhibition rates were calculated and plotted versus test concentrations to afford the IC50 (±SD) for three independent tests. Data were analyzed using SPSS 26.0 software. p < 0.05 was considered statistically significant.

Cytotoxicity, MTT assay = assay type: cell-based; details: mouse
Description: as §3
Cell viability was evaluated using MTT (3-(4,5-Dimethylthiazol-2-yl)-2,5-diphenyltetrazolium bromide) assay. RAW 264.7 cells were seeded in 96-well plates at a density of 5 × 10^3 cells per well and incubated overnight. Cells were incubated with tested compounds (DMSO as solvent) at 37 °C for 72 h. Subsequently, 50 μL of MTT/medium solution (0.5 mg/mL) was added to each well, and the cells were incubated for 1 h at 37 °C. After removing the MTT/medium, 100 μL of DMSO was added to each well. The plate was shaken to dissolve the precipitate, and activity was measured at 540 nm using a microplate reader. Cell viability was calculated using the following formula: Cell viability/% = (Absorbance of treated cells − Absorbance of blank control)/(Absorbance of negative control − Absorbance of blank control) × 100. The half-maximal inhibitory concentration (IC50) was calculated with Origin 8 Pro.

[2] = tested on: Escherichia coli (ATCC 25922); assay: Antimicrobial MIC, 96-well broth dilution; assay type: cell-based; details: ATCC25922, tested range 0.78–100 μg/mL, 24 h at 27 °C, means of three parallel experiments, read-out: minimum inhibitory concentration (MIC)
From the text: as §1, §2

[3] = tested on: Staphylococcus aureus (ATCC 12598); assay: Antimicrobial MIC, 96-well broth dilution; assay type: cell-based; details: read-out: minimum inhibitory concentration (MIC)
From the text: as §1, §2

[4] = tested on: Salmonella typhimurium (ATCC 6539); assay: Antimicrobial MIC, 96-well broth dilution; assay type: cell-based; details: Salmonella enterica, 24 h, read-out: minimum inhibitory concentration (MIC)
From the text: as §1, §2

[5] = Mus musculus, RAW264.7, RAW 264.7 cells
[6] = ATCC12598, tested range 0.78–100 μg/mL, 24 h at 27 °C, means of three parallel experiments
[7] = RAW 264.7 cells, MTT, 72 h, without LPS stimulation, read-out: Cytotoxicity (CC50)

| Compound | MIC (Fusarium oxysporum) | MIC (Penicillium italicum) | MIC (Colletotrichum musae) | IC50 [1, 5] | CC50 at 72 h (Cytotoxicity, MTT assay) | MIC [2] | MIC [3, 6] | MIC [4] | IC50 ([1]; RAW 264.7 cells) | MIC ([3]; ATCC12598, 24 h) | CC50 at 72 h (Cytotoxicity, MTT assay; [7]) | minimum inhibitory concentration (MIC) (Colletotrichum musae) |
| --- | --- | --- | --- | --- | --- | --- | --- | --- | --- | --- | --- | --- |
| COC(=O)Nc1nc2ccccc2[nH]1 [Carbendazim, reference compound] | 1.56 µg/mL (≈ 8.16 µM) | 0.78 µg/mL (≈ 4.08 µM) | 0.78 µg/mL (≈ 4.08 µM) |  |  |  |  |  |  |  |  |  |
| Cc1ccc(-c2cc(C(F)(F)F)nn2-c2ccc(S(N)(=O)=O)cc2)cc1 [Celecoxib, reference compound] |  |  |  | 32.1 ± 1.7 µM | > 50 µM |  |  |  |  |  |  |  |
| O=C(O)c1cn(C2CC2)c2cc(N3CCNCC3)c(F)cc2c1=O [Ciprofloxacin, reference compound] |  |  |  |  |  | 0.8 µg/mL (≈ 2.41 µM) | 0.1 µg/mL (≈ 0.302 µM) | 0.2 µg/mL (≈ 0.604 µM) |  |  |  |  |
| Cc1cc2ccc3cc(C(C)(C)O)oc3c2cn1 [Compound 1] | 50 µg/mL (≈ 207 µM) | 50 µg/mL (≈ 207 µM) | 50 µg/mL (≈ 207 µM) | 17.3 µM |  | 25 µg/mL (≈ 104 µM) |  | 12.5 µg/mL (≈ 51.8 µM) | 17.3 ± 1.6 µM | 12.5 µg/mL (≈ 51.8 µM) | > 50 µM |  |
| Cc1cc2ccc3c(c2cn1)OC(C(C)(C)O)C3 (centres unmarked) [Compound 2] | 50 µg/mL (≈ 206 µM) | 50 µg/mL (≈ 206 µM) | 25 µg/mL (≈ 103 µM) | 31.5 ± 2.3 µM |  | 50 µg/mL (≈ 206 µM) | 25 µg/mL (≈ 103 µM) | 50 µg/mL (≈ 206 µM) |  |  | > 50 µM |  |
| Cc1cc2ccc3c(c2cn1)O[C@@](O)(C(C)C)C3=O [Compound 3, TMC-120 C] |  |  |  |  |  |  |  |  |  |  | > 50 µM |  |
| CC(C)=C1Oc2c(ccc3cc(C)ncc23)C1=O [Compound 4, TMC-120 B] |  |  |  |  |  |  |  |  |  |  | > 50 µM |  |
| CC(C)(O)C1Cc2ccc(C=CC(=O)O)c(CO)c2O1 (centres unmarked) [Compound 5] | 50 µg/mL (≈ 180 µM) | 12.5 µg/mL (≈ 44.9 µM) | 12.5 to 25 µg/mL (≈ 44.9 to 89.8 µM) |  |  | 50 µg/mL (≈ 180 µM) | 50 µg/mL (≈ 180 µM) | 50 µg/mL (≈ 180 µM) |  |  |  | 25 µg/mL (≈ 89.8 µM) |
| CC(C)C1(O)Oc2c(ccc(CO)c2CO)C1=O (centres unmarked) [Compound 6] | 50 µg/mL (≈ 198 µM) | 12.5 µg/mL (≈ 49.6 µM) | 12.5 to 25 µg/mL (≈ 49.6 to 99.1 µM) |  |  | 100 µg/mL (≈ 396 µM) | 50 µg/mL (≈ 198 µM) | 50 µg/mL (≈ 198 µM) |  |  |  | 12.5 µg/mL (≈ 49.6 µM) |

Reference: article PMC12386745, “Benzofuran Derivatives with Antimicrobial and Anti-Inflammatory Activities from Penicillium crustosum SCNU-F0046” (International Journal of Molecular Sciences, 2025)
